Results on ten molecules are retold here after patent publication US20150119373A1, “NOVEL BETULINIC ACID DERIVATIVES AS HIV INHIBITORS” (HETERO RESEARCH FOUNDATION, priority 2012, published 2015).

A short description of data set [1]: Cyto-toxicity assay (MTT) in MT2 cells without virus. The format is cell-based. The note with it: human. The procedure: For cyto-toxicity assay the same amount of MT2 cells as in antiviral assay without virus was added to the 96 well plates. The cyto-toxicity was measured using MTT reagent in parallel with p24 estimation. The percent viability is calculated in comparison with vehicle control.

Data set [2] can be described thus: Single dose oral pharmacokinetic study in mice. The format is in vivo. The note with it: mouse, plasma, Mice oral PK @30 mg/kg (Table 5); for AUC(0-t): read-out: AUC 0-t. Here is the method: The test item was administered through oral route to animals (rat/mice) at 30 mg/kg dose in a suitable vehicle at 10 ml/kg dose volume. Blood samples (˜50 uL at each time point) were collected from retro-orbital plexus using K3 EDTA as anticoagulant in eppendorf tubes at defined time intervals under light ether anesthesia. The samples were centrifuged at 3500×g to separate plasma and stored at −80° C. until analysis.
Sample analysis: Test samples were analyzed using LC-MS-MS after developing fit-for-purpose method for each of test compound.

For the next data set, the system named is HIV-1 strain 92HT599. Put plainly: Antiviral activity: p24 estimation in MT2 cells infected with HIV-1 strain 92HT599. It counts as cell-based. The note with it: Human immunodeficiency virus 1, MT2 cells, HIV-1 92HT599, ~96 hours, p24; for inhibition at 0.1 µM: 100 nM, read-out: Antiviral activity % inhibition 100 nM; for inhibition at 1 µM: 1000 nM, read-out: Antiviral activity % inhibition 1000 nM. The procedure:
MT2 cells were infected with HIV-1 strain 92HT599 (10 TCID 50/30000 cells). The infected cells were plated at the concentration of […] cells per well in 96 well plate. Test compound was added to the micro plate in defined format with the final concentration of DMSO (vehicle) is not more than 1%. Incubation was carried out in CO2 incubator for ˜96 hours for viral infection. At the end of incubation period an aliquot from each well was taken for p24 estimation. The quantitation of p24 is an index for antiviral activity of the compound. Percent inhibition was calculated with reference to control values (vehicle controls).
p-24 estimation was carried out using Advance biosciences kit as per the procedure detailed by supplier.

With `CCN1CCN(C(=O)[C@]23CC[C@@H](C4(C)CC4)[C@@H]2[C@H]2CC[C@@H]4[C@@]5(C)CC[C@H](OC(=O)CC(C)(C)C(=O)O)C(C)(C)[C@@H]5CC[C@@]4(C)[C@]2(C)CC3)CC1` [Example 12, 4-((1R,3aS,5aR,5bR,7aR,9S,11aR,11bR,13aR,13bR)-3a-(4-ethylpiperazine-1-carbonyl)-5a,5b,8,8,11a-pentamethyl-1-(1-methylcyclopropyl)icosahydro-1H-cyclopenta[a]chrysen-9-yloxy)-2,2-dimethyl-4-oxobutanoicacid], in data set [1], the viability – broadly, a read-out of living cells in per cent, often relative to untreated cells – at 100 nM stood at 100% and the viability at 1000 nM is 99%. Further, in data set [2], the Cmax (usually the highest concentration seen after dosing) is 8160 ng/mL; the Tmax (as a rule, the time from dosing to the highest level) came to 4 h; the area under the curve AUC(0-t) – broadly, exposure summed from dosing to a finite time, without extrapolation to infinity – stood at 201 µg·h/mL. Moreover, in the data set on HIV-1 strain 92HT599, the inhibition – broadly, the change of the read-out against control, counted positive when it falls – at 0.1 µM is 100% and the inhibition at 1 µM was 100%.

With `CCN1CCN(C(=O)[C@]23CC[C@@H](C4(C)CC4)[C@@H]2[C@H]2CC[C@@H]4[C@@]5(C)CC[C@H](OC(=O)[C@H]6C[C@@H](C(=O)O)C6(C)C)C(C)(C)[C@@H]5CC[C@@]4(C)[C@]2(C)CC3)CC1` [Example 13, (1R,3S)-3-(((1R,3aS,5aR,5bR,7aR,9S,11aR,11bR,13aR,13bR)-3a-(4-ethylpiperazine-1-carbonyl)-5a,5b,8,8,11a-pentamethyl-1-(1-methylcyclopropyl)icosahydro-1H-cyclopenta[a]chrysen-9-yloxy)carbonyl)-2,2-dimethylcyclobutanecarboxylic acid], in data set [1], the viability at 100 nM amounted to 86% and the viability at 1000 nM came to 79%. For the same molecule, in data set [2], the Cmax stood at 12000 ng/mL, the Tmax was 20 h and the AUC(0-t) is 456 µg·h/mL. Moreover, in the data set with HIV-1 strain 92HT599, the inhibition at 0.1 µM is 83% and the inhibition at 1 µM is 99%.

Turning to `CC(C)(CC(=O)O[C@H]1CC[C@]2(C)[C@H]3CC[C@@H]4[C@H]5[C@H]([C@]6(C)CO6)CC[C@]5(C(=O)N[C@@H]5C[C@H](C(=O)N6CCCCC6)C5(C)C)CC[C@@]4(C)[C@]3(C)CC[C@H]2C1(C)C)C(=O)O` [Example 14, 4-((1R,3aS,5aR,5bR,7aR,9S,11aR,11bR,13aR,13bS)-3a-((1R,3S)-2,2-dimethyl-3-(piperidine-1-carbonyl)cyclobutylcarbamoyl)-5a,5b,8,8,11a-pentamethyl-1-(2-methyloxiran-2-yl)icosa hydro-1H-cyclopenta[a]chrysen-9-yloxy)-2,2-dimethyl-4-oxobutanoicacid], in data set [1], the viability at 100 nM came to 86% and the viability at 1000 nM came out at 88%. In addition, in data set [2], the Cmax is 4450 ng/mL, the Tmax is 0.63 h and the AUC(0-t) came out at 15.2 µg·h/mL. Besides, in the data set with HIV-1 strain 92HT599, the inhibition at 0.1 µM is 100% and the inhibition at 1 µM was 100%.

In data set [1], `COCCOCCOC1CCN(C(=O)[C@]23CC[C@@H](C4(C)CC4)[C@@H]2[C@H]2CC[C@@H]4[C@@]5(C)CC[C@H](OC(=O)CC(C)(C)C(=O)O)C(C)(C)[C@@H]5CC[C@@]4(C)[C@]2(C)CC3)CC1` [Example 43, 4-(((1R,3aS,5aR,5bR,7aR,9S,11aR,11bR,13aR,13bR)-3a-(4-(2-(2-methoxyethoxyl)ethoxy)piperidine-1-carbonyl)-5a,5b,8,8,11a-pentamethyl-1-(1-methylcyclopropyl)icosahydro-1H-cyclopenta[a]chrysen-9-yl)oxy)-2,2-dimethyl-4-oxobutanoic acid] displayed a viability at 100 nM of 100% and a viability at 1000 nM of 100%. Moreover, in the data set with HIV-1 strain 92HT599, the inhibition at 0.1 µM is 99% and the inhibition at 1 µM is 99%.

Turning to `COCCOCCOC1CCN(C(=O)[C@]23CC[C@@H](C4(C)CC4)[C@@H]2[C@H]2CC[C@@H]4[C@@]5(C)CC[C@H](OC(=O)[C@H]6C[C@@H](C(=O)O)C6(C)C)C(C)(C)[C@@H]5CC[C@@]4(C)[C@]2(C)CC3)CC1` [Example 44, (1R,3S)-3-((((1R,3aS,5aR,5bR,7aR,9S,11aR,11bR,13aR,13bR)-3a-(4-(2-(2-methoxyethoxyl)ethoxy)piperidine-1-carbonyl)-5a,5b,8,8,11a-pentamethyl-1-(1-methylcyclopropyl)icosahydro-1H-cyclopenta[a]chrysen-9-yl)oxy)carbonyl)-2,2-dimethylcyclobutane-1-carboxylic acid], in data set [1], the viability at 100 nM amounted to 93% and the viability at 1000 nM is 86%. In the data set with HIV-1 strain 92HT599, the inhibition at 0.1 µM was 97% and the inhibition at 1 µM is 100%.

`CCN1CCN(C2CCN(C(=O)[C@]34CC[C@@H](C5(C)CC5)[C@@H]3[C@H]3CC[C@@H]5[C@@]6(C)CC[C@H](OC(=O)[C@H]7C[C@@H](C(=O)O)C7(C)C)C(C)(C)[C@@H]6CC[C@@]5(C)[C@]3(C)CC4)CC2)CC1` [Example 46, (1R,3S)-3-((((1R,3aS,5aR,5bR,7aR,9S,11aR,11bR,13aR,13bR)-3a-(4-(4-ethylpiperazin-1-yl)piperidine-1-carbonyl)-5a,5b,8,8,11a-pentamethyl-1-(1-methylcyclopropyl)icosahydro-1H-cyclopenta[a]chrysen-9-yl)oxy)carbonyl)-2,2-dimethylcyclobutane-1-carboxylic acid]: in data set [1], the viability at 100 nM was found to be 100% and the viability at 1000 nM is 90%. In the data set with HIV-1 strain 92HT599, the inhibition at 0.1 µM was 100% and the inhibition at 1 µM was 100%.

In data set [1], `CC(C)(CC(=O)O[C@H]1CC[C@]2(C)[C@H]3CC[C@@H]4[C@H]5[C@H](C6(C)CC6)CC[C@]5(C(=O)N5CCC(OCCN6CCOCC6)CC5)CC[C@@]4(C)[C@]3(C)CC[C@H]2C1(C)C)C(=O)O` [Example 47, 2,2-dimethyl-4-oxo-4-(((1R,3aS,5aR,5bR,7aR,9S,11aR,11bR,13aR,13bR)-5a,5b,8,8,11a-pentamethyl-1-(1-methylcyclopropyl)-3a-(4-(2-morpholinoethoxyl)piperidine-1-carbonyl)icosahydro-1H-cyclopenta[a]chrysen-9-yl)oxy)butanoic acid] came in with a viability at 100 nM of 100% and a viability at 1000 nM of 96%. Further, in the data set on HIV-1 strain 92HT599, the inhibition at 0.1 µM was 100% and the inhibition at 1 µM was 99%.

In data set [1], `CC1([C@@H]2CC[C@]3(C(=O)N4CCC(OCCN5CCOCC5)CC4)CC[C@]4(C)[C@H](CC[C@@H]5[C@@]6(C)CC[C@H](OC(=O)[C@H]7C[C@@H](C(=O)O)C7(C)C)C(C)(C)[C@@H]6CC[C@]54C)[C@@H]23)CC1` [Example 48, (1R,3S)-2,2-dimethyl-3-((((1R,3aS,5aR,5bR,7aR,9S,11aR,11bR,13aR,13bR)-5a,5b,8,8,11a-pentamethyl-1-(1-methylcyclopropyl)-3a-(4-(2-morpholinoethoxyl)piperidine-1-carbonyl)icosahydro-1H-cyclopenta[a]chrysen-9-yl)oxy)carbonyl)cyclobutane-1-carboxylic acid] yielded a viability at 100 nM of 100% and a viability at 1000 nM of 100%. Besides, in the data set with HIV-1 strain 92HT599, the inhibition at 0.1 µM was 97% and the inhibition at 1 µM is 99%.

In data set [1], `CC(C)(CC(=O)O[C@H]1CC[C@]2(C)[C@H]3CC[C@@H]4C5[C@H](C6(C)CC6)CC[C@]5(C(=O)N[C@H]5C[C@@H](C(=O)N6CCOCC6)C5(C)C)CC[C@@]4(C)[C@]3(C)CC[C@H]2C1(C)C)C(=O)O` (stereo partly drawn) [Example 51, 4-(((1R,3aS,5aR,5bR,7aR,9S,11aR,11bR,13aR)-3a-(((1S,3R)-2,2-dimethyl-3-(morpholine-4-carbonyl)cyclobutyl)carbamoyl)-5a,5b,8,8,11a-pentamethyl-1-(1-methylcyclopropyl)icosahydro-1H-cyclopenta[a]chrysen-9-yl)oxy)-2,2-dimethyl-4-oxobutanoic acid] gave a viability at 100 nM of 85% and a viability at 1000 nM of 83%. Also, in the data set on HIV-1 strain 92HT599, the inhibition at 0.1 µM is 100% and the inhibition at 1 µM was 100%.

In data set [1], `CC(C)(CC(=O)O)CC(=O)O[C@H]1CC[C@]2(C)[C@H]3CC[C@@H]4C5[C@H](C6(C)CC6)CC[C@]5(C(=O)N[C@H]5C[C@@H](C(=O)N6CCOCC6)C5(C)C)CC[C@@]4(C)[C@]3(C)CC[C@H]2C1(C)C` (stereo partly drawn) [Example 52, 5-(((1R,3aS,5aR,5bR,7aR,9S,11aR,11bR,13aR)-3a-(((1S,3R)-2,2-dimethyl-3-(morpholine-4-carbonyl)cyclobutyl)carbamoyl)-5a,5b,8,8,11a-pentamethyl-1-(1-methylcyclopropyl)icosahydro-1H-cyclopenta[a]chrysen-9-yl)oxy)-3,3-dimethyl-5-oxopentanoic acid] had a viability at 100 nM of 95% and a viability at 1000 nM of 85%. In the data set on HIV-1 strain 92HT599, the inhibition at 0.1 µM is 100% and the inhibition at 1 µM was 100%.
